Reference: US9334300B2, “Vitamin B6 derivatives of nucleotides, acyclonucleotides and acyclonucleoside phosphonates” (MBC PHARMA, INC., priority 2011, dated 2016)
Values belong to the molecule of their own block, whether it stands above or below them.

What was measured:
[1] = test system: PC3 prostate cancer line; assay: MTS proliferation assay, PC3 prostate cancer cells; assay type: cell-based; settings: 48 hours, FIG. 1
Protocol: (§1) In a 96-well plate, each well was prepared to contain 50 uL of 50,000 cells in media (HyClone IMDM Modified+4 mM L-Glu, HEPES with 10% Fetal Bovine Serum) to which was added 50 uL media containing either the free nucleoside (cytarabine or gemcitabine) or the conjugate (compound 3 or 16) that achieved the following final concentrations: 0, 0.1, 0.2, 0.5, 1, 3, 10, or 100 uM. The cells were incubated at 37° C. with 5% CO2 for 24, 48 or 72 hours (data trends similarly for all incubation periods while the 48 hour data is shown). The Promega MTS based proliferation assay kit (Promega; CellTiter 96® AQueous Non-Radioactive Cell Proliferation Assay (MTS)) was used as per manufacturer's instructions. In short, to each well 100 uL of MTS/PMS reagent was added and allowed to incubate for approximately 2 hours at 37° C. to achieve a colorimetric indication of active cell metabolism. This was quantitated by reading the visible absorption at 415 nm. The data (FIG. 1) was normalized to the absorption range defined from minimal absorbance (media absent cells and drug present), to maximum absorbance (media with cells in the absence of drug). All points were measured in triplicate and averaged before normalization to a 0-100% range. Data was plotted (FIG. 1) as percent inhibition versus log of the compound concentration. […]

[2] = test system: 22Rv1 cells; assay: Pulse chase (10 or 60 minute exposure) MTS proliferation assay, 22Rv1; assay type: cell-based; settings: 48 hours in fresh media
Protocol: (§2) In a 96-well plate, each well was prepared to contain 50 uL of 50,000 cells in media (HyClone IMDM Modified+4 mM L-Glu, HEPES with 10% Fetal Bovine Serum) to which was added 50 uL media containing either the free nucleoside (cytarabine or gemcitabine) or the conjugate (compound 3 or 16) that achieved the following final concentrations: 0, 0.1, 0.2, 0.5, 1, 3, 10, or 100 uM. The cells were incubated at 37° C. with 5% CO2 for 24, 48 or 72 hours (data trends similarly for all incubation periods while the 48 hour data is shown). The Promega MTS based proliferation assay kit (Promega; CellTiter 96® AQueous Non-Radioactive Cell Proliferation Assay (MTS)) was used as per manufacturer's instructions. In short, to each well 100 uL of MTS/PMS reagent was added and allowed to incubate for approximately 2 hours at 37° C. to achieve a colorimetric indication of active cell metabolism. This was quantitated by reading the visible absorption at 415 nm. The data (FIG. 1) was normalized to the absorption range defined from minimal absorbance (media absent cells and drug present), to maximum absorbance (media with cells in the absence of drug). All points were measured in triplicate and averaged before normalization to a 0-100% range. Data was plotted (FIG. 1) as percent inhibition versus log of the compound concentration. Where sigmodial curve fitting was possible, a four-parameter logistic non-linear regression model equation was used to generate the curves and IC50 values. […] The pulse chase experiments shown in FIG. 2 were done as described above with the one alteration that at either the 10 or 60 time point after addition of drug the media was replaced with drug-free media and the cells were allowed to continue incubation for a total of 48 hours. […] Data points were collected in quintuplicate; error bars show standard deviations. […] Sigmodial curve fitting employed a four-parameter logistic non-linear regression model equation.
This was tested for with a 10 or 60 minute pulsed exposure of 22Rv1 cells to compounds, followed by 48 hours of incubation in fresh media. […]

[3] = test system: 22Rv1 cells; assay: MTS proliferation assay, 22Rv1 prostate cancer cells; assay type: cell-based
Protocol: as §2

[4] = test system: 5TGM1 cells; assay: MTS proliferation assay, multiple myeloma cell line; assay type: cell-based, rodent; settings: 72 hours, FIG. 3
Protocol: In a 96-well plate, each well was prepared to contain 50 uL of 50,000 5TGM1 cells in media (HyClone IMDM Modified+4 mM L-Glu, HEPES with 10% Fetal Bovine Serum) to which was added 50 uL media containing cytarabine or compound 3 (MU004-26) that achieved the following final concentrations: 0, 0.1, 0.2, 0.5, 1, 3, 10, or 100 uM. The cells were incubated at 37° C. with 5% CO2 for 24, 48 or 72 hours (data trends similarly for all incubation periods while the 72 hour data is shown). The Promega […] based proliferation assay kit was used as per manufacturer's instructions. In short, to each well 100 uL of MTS/PMS reagent was added and allowed to incubate for approximately 2 hours at 37° C. to achieve a colorimetric indication of active cell metabolism. This was quantitated by reading the visible absorption at 415 nm. The data (FIG. 3) was normalized to the absorption range defined from minimal absorbance—media absent cells and drug present, to maximum absorbance—media with cells in the absence of drug. All points were measured in triplicate and averaged before normalization to a 0-100% range. Data was plotted (FIG. 3) as percent inhibition versus log of the compound concentration. As the FIG. 3 illustrates the Cytarabine IC50=0.5 uM while the Conjugate IC50=1 uM.

[5] = test system: subcutaneous Capan-2 tumors; assay: Mouse xenograft model of pancreatic cancer; assay type: in vivo; settings: nude mice, Capan-2 subcutaneous, 20 mg/kg 3-times per week
Protocol: FIG. 4 illustrates the conjugate of vitamin B6 and gemcitabine is efficacious in a mouse model of human pancreatic cancer. In this model, immune compromised nude mice were injected subcutaneously with the human pancreatic cell line Capan-2 (˜10^6 cells/100 ul). After tumor growth was detected the animals were randomized and either administered the isotonic saline vehicle control alone or with the gemcitabine conjugate (20 mg/kg; 3-times per week).

[6] = test system: Capan2 cells; assay: Pulse chase (60 minute exposure) MTS proliferation assay, Capan2; assay type: cell-based, human; settings: 60 minute pulse, all concentrations tested
[7] = test system: pancreatic cell lines (Capan2, Panc1 and MiaPaca); assay: MTS proliferation assay, pancreatic cancer cell lines; assay type: cell-based; settings: 48 hours, FIG. 1
Protocol: as §1

[8] = Conjugate stability in saline and growth media (HPLC); assay type: physicochemical; settings: for stability in buffers and media: over the time course of experiments
Protocol: The rapid release of nucleoside or nucleotide from the conjugate into the growth media appeared to be ruled out. To test for this event conjugate 3 was incubated in isotonic saline, sterile media or media that was conditioned by 3 days of cell growth. In conditioned media the cells were removed from the media by centrifugation and conjugate was added to the media and incubated at 37° C. for 0.25, 24 and 72 hours. Proteins and large molecules were removed via precipitation with a 5:4:1 v:v:v mixture of Acetonitrile:methanol:1% Formic acid and subsequent centrifugation. The supernatant (100 uL injection volume) was subjected to HPLC analysis on DNA Pac PA 200 (Dionex, USA) column in a gradient of 400 mM ammonium acetate in 20% acetonitrile (3-40% over 10 minutes).

Structure (SMILES): Nc1ccn([C@@H]2O[C@H](CO)[C@@H](O)C2(F)F)c(=O)n1 [Gemcitabine, 2′-Deoxy-2′,2′-difluorocytidine, reference compound]
sensitivity to parent drug relative to conjugate [1]: 3 fold | stimulation of proliferation ([2]; 100 uM pulse): 10% | effect on proliferation ([3]; 48 hour exposure, 0.1-10 uM): stimulated proliferation

IC50 [4]: 500 nM
Structure (SMILES): Nc1ccn([C@@H]2O[C@H](CO)[C@@H](O)[C@@H]2O)c(=O)n1 [Cytarabine, reference compound]

stability in buffers and media [8]: stable
Structure (SMILES): Cc1ncc(CO)c(CNP(=O)(O)OC[C@H]2O[C@@H](n3ccc(N)nc3=O)C(F)(F)C2O)c1O (stereo partly drawn) [Compound 16, N-pyridoxylamide of 2′-Deoxy-2′,2′-difluoro-5′-cytidylic acid]
tumor growth relative to untreated growth [5]: stabilized tumor growth | effect of pulse compared to free Gem [6]: more rapid effect | fold more potent than Gem alone [7]: 2-100 fold | decrease of proliferation beyond that of free gemcitabine ([2]; 100 uM pulse for 60 minutes): 40% | anti-proliferation after pulse ([2]; 10 minute pulse): measurable anti-proliferation | fold more potent than Gem ([3]; 48 hours, FIG. 1): up to 7 fold

IC50 [4]: 1000 nM | stability in buffers and media [8]: stable
Structure (SMILES): Cc1ncc(CO)c(CN[P@SP3](=O)(O)OC[C@H]2O[C@@H](n3ccc(N)nc3=O)C(O)C2O)c1O (stereo partly drawn) [Compound 3, 5′-aracytidilic acid N-pyridoxylamide]
release of free cytarabine or pyridoxamine (HPLC) ([8]; isotonic saline, sterile media or conditioned media, 37° C., 0.25, 24 and 72 hours): neither free cytarabine nor free pyridoxamine (or any other pyridoxyl based compound) was detected | fold more potent than araC ([3]; 48 hours, FIG. 1): > 10 fold
